# Results published in patent US4426453A, “Derivatives of iodothyronine compounds and their use in an assay for the free iodothyronine compounds” (Amersham International Limited, priority 1980, dated 1984).
# Entries after “also recorded” stand apart in the source; their conditions may differ.
# Tests used:
# [1] = Stability in water / assay buffer; type: physicochemical; conditions: qualitative
# TBG [2] = biological target: T1, TBG (Homo sapiens, UniProt P05543); assay: T4.EDTA binding strength to TBG relative to T4 (displacement of 125I-T4 tracer from TBG:anti-TBG binding reagent); design: 1 ml of resin stripped human serum; from tissue; host or cells: human serum (resin stripped); conditions: for binding to TBG (in words): qualitative
# T1 sequence (P05543 21-415): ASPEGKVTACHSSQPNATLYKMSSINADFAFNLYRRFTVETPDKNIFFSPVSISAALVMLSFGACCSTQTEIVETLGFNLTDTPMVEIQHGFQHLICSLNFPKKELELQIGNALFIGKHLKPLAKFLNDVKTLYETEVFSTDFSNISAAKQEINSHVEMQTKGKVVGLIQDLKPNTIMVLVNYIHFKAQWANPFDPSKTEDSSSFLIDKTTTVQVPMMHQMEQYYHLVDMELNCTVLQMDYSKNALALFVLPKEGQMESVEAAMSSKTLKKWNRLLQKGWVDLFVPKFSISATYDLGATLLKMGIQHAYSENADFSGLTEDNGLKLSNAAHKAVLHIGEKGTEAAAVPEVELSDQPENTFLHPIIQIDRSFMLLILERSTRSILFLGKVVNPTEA
# Procedure: (§1) Pre-precipitated antiserum (binding reagent) to either TBG or prealbumin is incubated with a serum source of TBG or prealbumin, so that the T4 binding protein is isolated on the binding reagent. Tracer ^125 I-T4 is added to the resulting complex and is thus purified. The displacement of the tracer ^125 I-T4, by varying concentrations of T4 and T4.EDTA, from the TBG or prealbumin, can then be studied. The results can be used to estimate the differences in binding affinity between T4 and T4.EDTA for the two T4 binding proteins.
# 15% Donkey anti-sheep in phosphate
# 2% TBG Antiserum buffer + 0.05% BSA
# Equal quantities of the above solutions are mixed and rotated overnight at 4° so that the final concentrations in the binding reagent are 7.5% donkey anti-sheep, and 1% TBG antiserum. Centrifugation at 900 rpm, decantation and resuspension in fresh buffer are carried out twice to wash the reagent.
# 1 ml of resin stripped human serum and 20 ml of the above binding reagents are mixed for 1 hour at room temperature. Centrifugation, decantation and resuspension in fresh buffer (phosphate+0.05% BSA) are carried out twice.
# Typically 10 ml of TBG:anti-TBG binding reagents, 28 ml of phosphate buffer+0.05% BSA, and 2 ml of ^125 I-T4 tracer solution (0.1 μCi high specific activity T4 per ml in phosphate buffer+0.05% BSA) are mixed for 1 hour at room temperature. Centrifugation, decantation and resuspension in fresh buffer (phosphate+0.05% BSA) are carried out twice. Once prepared the tracer T4:TBG:anti-TBG binding reagent is used immediately.
# The stock solutions are diluted in phosphate buffer+0.005% BSA. […]
# (§2) Thus the percentage bound of the tracer at different T4 and T4.EDTA concentrations, can be determined in the two systems.
# (§3) Tracer percentage bound is plotted against T4 and T4.EDTA concentrations, and from these curves an estimate of the non-specific binding can be made. The data can then be re-calculated, using this blank correction, plotted, and the T4 and T4.EDTA concentrations corresponding to a range of tracer percentage bound values can be read off the curve. […]
# [3] = test system: Antisera (having low T4 cross reactivity); assay: Binding to antisera having low T4 cross reactivity; conditions: antisera with low T4 cross reactivity; compared with T3
# TBG [4] = biological target: T1, TBG; conditions: blood stream of human beings; cited from earlier work
# TBPA = conditions: blood stream of human beings; cited from earlier work
# Albumin = conditions: blood stream of human beings; cited from earlier work
# TBPA (prealbumin) = biological target: T2, TBPA (prealbumin) (Homo sapiens, UniProt P02766); assay: T4.EDTA binding strength to prealbumin (TBPA) relative to T4 (displacement of 125I-T4 tracer from TBPA:anti-TBPA binding reagent)
# T2 construct: from tissue; host or cells: normal serum
# Procedure: as §1
# This is prepared as for the anti-TBG binding reagent except that equal volumes of 30% donkey anti-rabbit second antibody and 4% TBPA antiserum solutions were mixed to give final concentrations of 15% donkey anti-rabbit, and 2% anti-TBPA.
# 600 μl normal serum and 20 ml anti-TBPA binding reagent are mixed for 1 hour at room temperature. […]
# as §2, §3
# T4 antiserum = assay: Affinity with respect to T4 antiserum; type: binding
# [5] = test system: solid phase T4 antibody (T4-specific antiserum on latex particles); assay: Free-T4 assay using T4.EDTA tracer: standard curve; type: binding; conditions: 37° C., one hour
# Source text: T4.EDTA was labelled with ^125 I by an exchange reaction using sodium iodide-^125 I and chloramine-T. The specific activity obtained was typically 500 millicuries per milligram, and was used as a working concentration of 0.13 microcuries per […] in a 60 millimolar phosphate buffer, pH 7.4, containing 0.9% sodium chloride, 0.9% bovine serum albumin and 0.1% sodium azide.
# A solid phase antibody was used consisting of T4-specific antiserum bound on to micron sized latex particles such that the suspension contained 0.66 milligram of latex particles per milliliter and antibodies from 0.5 microliters of T4-specific antiserum per milligram of latex. The buffer was 10 millimolar phosphate, pH 7.4 containing 0.1% sodium azide.
# A set of 6 human serum pools were prepared by standard techniques to contain free-T4 concentrations ranging from zero to approximately 10 nanograms per deciliter. These standards were calibrated with reference to an equilibrium dialysis free T4 assay.
# The free T4 assay was set up in polystyrene assay tubes following this protocol:
# 100 μl serum standard or unknown serum sample
# 500 μl ^125 I-T4.EDTA tracer solution.
# 500 μl solid phase T4 antibody suspension.
# The assay tubes were vortex mixed, and incubated at 37° C. in a water bath for one hour. The tubes were centrifuged at 1500 g for 20 minutes and the supernatant liquid decanted. The readioactivity of the precipitate was measured.
# [6] = % of the affinity constant of T4, 37° C.
smiles,measurement,setting,value
"COC(=O)[C@H](Cc1cc(I)c(Oc2cc(I)c(O)c(I)c2)c(I)c1)NC(C)=O [N-Acetyl-thyroxine-methyl ester, N-acetyl-thyroxine-methyl ester, reference compound]",stability in water / usable time after dilution into the assay buffer,[1],only gives useful assay results within hours of dilution into the assay buffer
same,binding to TBG (in words),TBG [2],binds appreciably to TBG
"O=C(O)CN(CCN(CC(=O)O)CC(=O)NC(Cc1cc(I)c(Oc2ccc(O)c(I)c2)c(I)c1)C(=O)O)CC(=O)O (stereo not shown) [T3.EDTA, 2-carboxy-6,9-dicarboxymethyl-1 3',5'di-iodo-4'(3""-iodo-4""-hydroxy)phenoxy phenyl 4-oxo-3,6,9-triazaundecan-11-oic acid]",binding to antisera relative to T3,[3],"equal, or better, binding than T3 itself"
"N[C@@H](Cc1cc(I)c(Oc2cc(I)c(O)c(I)c2)c(I)c1)C(=O)O [T4, Thyroxine]",percentage of T4 bound to TBG,TBG [4],approximately 70%
same,percentage of T4 bound to TBPA,TBPA,20-25%
same,percentage of T4 bound to Albumin,Albumin,5-10%
"O=C(O)CN(CCN(CC(=O)O)CC(=O)NC(Cc1cc(I)c(Oc2cc(I)c(O)c(I)c2)c(I)c1)C(=O)O)CC(=O)O (stereo not shown) [T4.EDTA, 1-{3',5'-di-iodo-4'(3"",5""-di-iodo-4""-Hydroxyphenoxy)phenyl}2-carboxy-6,9-dicarboxymethyl-4-oxo-3,6,9-triazaundecan-11-oic acid]",affinity constant for TBPA relative to that of T4,TBPA (prealbumin); [6],2.7%
same,binding to TBPA (in words),TBPA (prealbumin); qualitative,binds only very weakly to TBG and TBPA
same,affinity constant with respect to T4 antiserum relative to that of T4,T4 antiserum; % of that of T4,90.4%
same,binding to T4 antiserum (in words),T4 antiserum; relative to T4,binds almost as strongly to T4 antiserum as does T4 itself
same,stability in water / usable time after dilution into the assay buffer,[1],stable in water
same,affinity constant for TBG relative to that of T4,TBG [2]; [6],3.5%
same,binding to TBG (in words),TBG [2],binds only very weakly to TBG; also recorded: shows no significant tendency to bind to TBG
O=C(O)CN(CCN(CC(=O)O)CC(=O)NC(Cc1cc(I)c(Oc2cc(I)c(O)c(I)c2)c(I)c1)C(=O)O)CC(=O)O (stereo not shown) [^125 I-T4.EDTA],% radioactivity in solid phase,[5]; free T4 0 ng/dl,61.8%
same,% radioactivity in solid phase,[5]; free T4 0.45 ng/dl,41.2%
same,% radioactivity in solid phase,[5]; free T4 0.95 ng/dl,30.8%
same,% radioactivity in solid phase,[5]; free T4 1.9 ng/dl,21.1%
same,% radioactivity in solid phase,[5]; free T4 4.9 ng/dl,12.4%
same,% radioactivity in solid phase,[5]; free T4 9.0 ng/dl,9.3%
